Experimental data taken from article PMC7044277 (Nature Communications, 2020).
Values joined by “and” are separate entries in the source; they are usually repeats but may differ in a detail not shown here. Equal entries are not always repeated.

Columns and labels:
Type in all cases: cell-based
320 non-olfactory GPCRs [1] = biological target: 320 non-olfactory GPCRs (Homo sapiens, UniProt P35414)
320 non-olfactory GPCRs [2] = biological target: 320 non-olfactory GPCRs (Homo sapiens, UniProt Q15743); conditions: receptor GPR68 no V2 Tail; replicate values, Fig_4g
320 non-olfactory GPCRs (Homo sapiens, UniProt Q15743), sequence (Q15743 whole entry): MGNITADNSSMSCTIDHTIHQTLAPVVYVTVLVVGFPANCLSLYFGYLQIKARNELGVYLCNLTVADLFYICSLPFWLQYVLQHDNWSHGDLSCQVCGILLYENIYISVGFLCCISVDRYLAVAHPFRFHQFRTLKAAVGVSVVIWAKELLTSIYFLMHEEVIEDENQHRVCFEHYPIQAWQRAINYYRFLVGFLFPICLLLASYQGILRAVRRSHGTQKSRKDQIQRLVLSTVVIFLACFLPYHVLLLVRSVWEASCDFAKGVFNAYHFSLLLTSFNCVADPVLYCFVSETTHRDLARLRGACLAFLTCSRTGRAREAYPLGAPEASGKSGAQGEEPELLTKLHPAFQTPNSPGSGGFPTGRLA

320 non-olfactory GPCRs [3] = biological target: 320 non-olfactory GPCRs (Homo sapiens, UniProt P21918)
320 non-olfactory GPCRs (Homo sapiens, UniProt P21918), sequence (P21918 whole entry): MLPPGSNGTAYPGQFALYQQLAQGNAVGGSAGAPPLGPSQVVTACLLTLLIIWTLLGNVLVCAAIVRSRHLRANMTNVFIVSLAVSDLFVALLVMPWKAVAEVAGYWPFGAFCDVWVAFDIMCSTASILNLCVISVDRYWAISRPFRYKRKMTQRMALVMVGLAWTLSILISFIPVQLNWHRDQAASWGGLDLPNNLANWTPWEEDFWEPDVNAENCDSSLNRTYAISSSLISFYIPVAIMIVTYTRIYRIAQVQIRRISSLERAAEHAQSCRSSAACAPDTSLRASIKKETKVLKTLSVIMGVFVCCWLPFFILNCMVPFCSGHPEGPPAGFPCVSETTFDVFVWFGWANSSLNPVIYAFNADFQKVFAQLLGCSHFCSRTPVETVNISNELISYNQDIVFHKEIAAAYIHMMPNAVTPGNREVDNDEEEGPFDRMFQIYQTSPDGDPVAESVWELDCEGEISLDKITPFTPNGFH

320 non-olfactory GPCRs [4] = biological target: T1, 320 non-olfactory GPCRs (Homo sapiens, UniProt P51684)
T1 construct: expressed in transfected cells; host or cells: HTLA cells
T1 sequence (P51684 whole entry): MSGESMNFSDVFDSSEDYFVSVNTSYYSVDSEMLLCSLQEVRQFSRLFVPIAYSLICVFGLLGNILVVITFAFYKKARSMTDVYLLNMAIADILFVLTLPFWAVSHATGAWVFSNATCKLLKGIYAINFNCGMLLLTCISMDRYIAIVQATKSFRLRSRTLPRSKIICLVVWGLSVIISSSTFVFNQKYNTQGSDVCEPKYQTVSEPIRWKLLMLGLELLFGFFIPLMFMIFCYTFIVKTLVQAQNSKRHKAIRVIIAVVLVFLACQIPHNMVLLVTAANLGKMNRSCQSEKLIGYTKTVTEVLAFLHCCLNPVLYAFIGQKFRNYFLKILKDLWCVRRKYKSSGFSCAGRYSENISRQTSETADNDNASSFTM
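Throughout, for Fold of Basal: compound tested at 1 µM final concentration.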
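Throughout, for GPCRome agonism screen response: fold over basal response of each receptor without drug.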

320 non-olfactory GPCRs (Homo sapiens, UniProt P35414), sequence (P35414 whole entry): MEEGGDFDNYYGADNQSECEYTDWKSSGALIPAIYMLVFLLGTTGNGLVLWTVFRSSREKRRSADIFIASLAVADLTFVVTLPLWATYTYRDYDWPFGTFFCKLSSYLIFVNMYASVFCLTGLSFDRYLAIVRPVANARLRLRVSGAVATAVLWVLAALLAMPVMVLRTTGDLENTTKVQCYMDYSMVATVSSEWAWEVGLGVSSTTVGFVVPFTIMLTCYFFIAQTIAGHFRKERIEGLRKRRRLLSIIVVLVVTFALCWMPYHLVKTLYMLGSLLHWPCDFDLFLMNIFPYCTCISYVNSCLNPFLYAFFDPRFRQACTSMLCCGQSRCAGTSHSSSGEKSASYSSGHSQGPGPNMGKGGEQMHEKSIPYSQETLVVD

SMILES: CCOc1cccc2cc(C(C)NCC3(O)CCCCC3)oc12 (stereo not shown) [O4LE6]
- Fold of Basal (320 non-olfactory GPCRs [1]): 1.057 and 1.1216 and 0.9447 and 1.032
- GPCRome agonism screen response (320 non-olfactory GPCRs [2]): 1.945 and 0.5249 and 1.001 and 1.345
- Fold of Basal (320 non-olfactory GPCRs [3]): 1.173 and 0.6004 and 0.7155 and 0.7884
- Fold of Basal (320 non-olfactory GPCRs [4]): 0.9905 and 0.8775 and 0.7328 and 0.5067
